For 6 compounds, Ki results are on record in patent publication US20090076152A1, “Novel Compounds Active as Muscarinic Receptor Antagonists” (priority 2007, published 2009).

T1 sequence (P20309 whole entry): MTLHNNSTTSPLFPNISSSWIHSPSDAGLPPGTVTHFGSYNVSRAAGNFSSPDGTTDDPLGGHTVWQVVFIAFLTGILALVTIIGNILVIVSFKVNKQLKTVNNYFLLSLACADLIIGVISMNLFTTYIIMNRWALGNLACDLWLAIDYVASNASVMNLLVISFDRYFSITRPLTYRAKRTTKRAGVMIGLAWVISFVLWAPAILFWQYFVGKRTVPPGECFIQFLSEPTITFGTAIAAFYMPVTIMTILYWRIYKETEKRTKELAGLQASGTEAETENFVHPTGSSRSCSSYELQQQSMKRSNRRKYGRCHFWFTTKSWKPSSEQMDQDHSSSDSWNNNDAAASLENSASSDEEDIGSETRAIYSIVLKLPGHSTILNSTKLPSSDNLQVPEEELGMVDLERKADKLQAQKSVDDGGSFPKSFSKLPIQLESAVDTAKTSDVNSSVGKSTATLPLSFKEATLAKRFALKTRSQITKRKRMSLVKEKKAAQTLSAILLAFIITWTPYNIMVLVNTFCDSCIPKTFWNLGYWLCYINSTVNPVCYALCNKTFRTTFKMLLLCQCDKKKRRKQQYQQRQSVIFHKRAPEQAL

The test addresses T1, human muscarinic M3 receptor (Homo sapiens, UniProt P20309).
T1 construct: expressed in transfected cells
Put plainly: hM3 β-Lac potency assay (NFAT-Betalactamase reporter in CHO-K1 cells). The following applies: CHO cells recombinantly expressing human M3, NFAT β-lactamase reporter; inhibition of 80 nM carbamyl choline signal, 4 h; IC50 converted to Ki by Cheng-Prusoff; read-out: Cell based β-lactamase M3 Ki. As to the method: M3 potency was determined in CHO-K1 cells transfected with the NFAT-Betalactamase gene. CHO (Chinese Hamster Ovary) cells recombinantly expressing the human muscarinic M3 receptor were transfected with the NFAT_β-Lac_Zeo plasmid. Cells were grown in DMEM with Glutamax-1, supplemented with 25 mM HEPES(Life Technologies 32430-027), containing 10% FCS (Foetal Calf Serum; Sigma F-7524), […] Sodium pyruvate (Sigma S-8636), NEM (non-Essential Amino Acids; Invitrogen 11140-035) and 200 μg/ml Zeocin (Invitrogen R250-01).
Cells were harvested for assay when they reached 80-90% confluency using enzyme free cell Dissociation Solution (Life technologies 13151-014) incubated with the cells for 5 min at 37° C. in an atmosphere containing 5% CO2. Detached cells were collected in warmed growth media and centrifuged at 2000 rpm for 10 min, washed in PBS (Phosphate Buffered Saline; Life Technologies 14190-094) and centrifuged again as just described. The cells were re-suspended at 2×10^5 cells/ml in growth medium (composition as described above). 20 μl of this cell suspension was added to each well of a 384 well black clear bottomed plate (Greiner Bio One 781091-PFI). The assay buffer used was PBS supplemented with 0.05% Pluronic F-127 (Sigma 9003-11-6) and 2.5% DMSO. Muscarinic M3 receptor signalling was stimulated using 80 nM carbamyl choline (Aldrich N240-9) incubated with the cells for 4 h at 37° C./5% CO2 and monitored at the end of the incubation period using a Tecan SpectraFluor+ plate reader (λ—excitation 405 nm, emission 450 nm and 503 nm). M3 receptor antagonists under test were added to the assay at the beginning of the 4 h incubation period and compound activity measured as the concentration dependent inhibition of the carbamyl choline induced signal. Inhibition curves were plotted and IC50 values generated using a 4-parameter sigmoid fit and converted to Ki values using the Cheng-Prusoff correction and the KD value for carbamyl choline in the assay.
On to `CC(C)N(CC[C@H](c1ccccc1)c1cc(CCOc2ccc(CCNCc3cc(F)cc(F)c3O)cc2)ccc1O)C(C)C` [Example 22, 2-{[2-(4-{2-[3-((1R)-3-Diisopropylamino-1-phenyl-propyl)-4-hydroxy-phenyl]-ethoxy}-phenyl)-ethylamino]-methyl}-4,6-difluoro-phenol], for which the inhibition constant (Ki) was determined as 7.11 nM.
As to `CC(C)N(CC[C@H](c1ccccc1)c1cc(CCOc2ccc(CCNCc3ccc(F)c(O)c3)cc2)ccc1O)C(C)C` [Example 23, 2-[(1R)-3-(diisopropylamino)-1-phenylpropyl]-4-[2-(4-{2-[(4-fluoro-3-hydroxybenzyl)amino]ethyl}phenoxy)ethyl]phenol], the Ki is above 6.66 nM.
The result for `CC(C)N(CC[C@H](c1ccccc1)c1cc(CCOc2ccc(CCNC(=O)c3cc(Cl)c(O)c(Cl)c3)cc2)ccc1O)C(C)C` [Example 24, 3,5-Dichloro-N-[2-(4-{2-[3-((1R)-3-diisopropylamino-1-phenyl-propyl)-4-hydroxy-phenyl]-ethoxy}-phenyl)-ethyl]-4-hydroxy-benzamide] reads 2.15 nM; that for `CC(C)N(CC[C@H](c1ccccc1)c1cc(CCOc2ccc(CCNC(=O)c3ccc(F)c(O)c3)cc2)ccc1O)C(C)C` [Example 25, 4-Fluoro-N-[2-(4-{2-[3-((1R)-3-diisopropylamino-1-phenyl-propyl)-4-hydroxy-phenyl]-ethoxy}-phenyl)-ethyl]-3-hydroxy-benzamide], 0.751 nM.
With `CC(C)N(CC[C@H](c1ccccc1)c1cc(CCOc2ccc(CCNC(=O)c3ccc(O)cc3)cc2)ccc1O)C(C)C` [Example 26, 4-Hydroxy-N-[2-(4-{2-[3-((1R)-3-diisopropylamino-1-phenyl-propyl)-4-hydroxy-phenyl]-ethoxy}-phenyl)-ethyl]-benzamide], the Ki came to 0.705 nM.
Consider `CC(C)N(CC[C@H](c1ccccc1)c1cc(CCOc2ccc(CCNS(=O)(=O)c3ccc(O)cc3)cc2)ccc1O)C(C)C` [Example 27, N-[2-(4-{2-[3-((1R)-3-diisopropylamino-1-phenyl-propyl)-4-hydroxy-phenyl]-ethoxy}-phenyl)-ethyl]-4-hydroxy-benzenesulfonamide], for which the inhibitory constant (Ki) worked out at 1.32 nM.
